Holding throughout (type): physicochemical
A short description of data set [1]: Stability Test (residual rate of the crystal after preservation, by HPLC). The following applies: crystals in a brown glass bottle, preserved at 40° C. for 2 weeks. As to the method: Residual rate was measured by HPLC (YMC-Pack AQ-302 ODS 4.6 mm i.d.×150 mm, temperature: about 25° C., mobile phase: (A) water (B) acetonitrile:water:triethylamine=160:40:1, gradient program, detection wavelength: 285 nm).

Data set [2] can be described thus: Solubility Test, aqueous solution with pH 6.9. Particulars: aqueous buffer, thermodynamic from solid, 8.87 mg almost dissolved when 35 mL was added. The protocol:
To the crystals (8.87 mg) obtained in Example 6 was gradually added dropwise an aqueous solution with pH 6.9.

Data set [3] in a line: Solubility Test, aqueous solution with pH 9.2. The following applies: aqueous buffer, thermodynamic from solid, 10.75 mg almost dissolved when 13.5 mL was added. As to the method: To the crystals (10.75 mg) obtained in Example 6 was gradually added dropwise an aqueous solution with pH 9.2. The crystals were almost dissolved at the time point when 13.5 mL was added (solubility: 0.80 mg/mL).

Converted amounts (≈) assume the structure as drawn.

A word on the solubility: it is the concentration that dissolves in the medium under given conditions. A higher solubility goes with much dissolved substance. In turn, `Cc1c(OCC(F)(F)F)ccnc1C[S@@+]([O-])c1nc2ccccc2[nH]1` [Example 6, (R)-2-[[[3-methyl-4-(2,2,2-trifluoroethoxy)-2-pyridyl]methyl]sulfinyl]benzimidazole] displayed a residual rate in data set [1] of 100.7%. In addition, the solubility stood at 250 µg/mL (≈ 677 µM) in data set [2] and 800 µg/mL (≈ 2170 µM) in data set [3].

The values are drawn from patent US8222422B2, “Crystal of benzimidazole compound” (Takeda Pharmaceutical Company Limited, priority 2008, dated 2012).
